Experimental data as given in EP4790048A1, “S1PR4 REGULATOR COMPOUND FOR AUTOIMMUNE DISEASE TREATMENT AND APPLICATION THEREOF” (Shengyuan Zetong (Shanghai) Pharmaceutical Co., Ltd, priority 2023, dated 2025).
Numbering of substitutions follows the chain as printed.

How the values were obtained:
S1PR4 = biological target: T1, S1PR4 (Homo sapiens, UniProt O95977); test: S1PR4 internalization and recovery test in S1PR4-293T cells; format: cell-based; settings: 1 µM, 37 °C, 1.5 hours; detected immediately, 5 hours or 20 hours after treatment
T1 construct: expressed in transfected cells; host or cells: 293T
T1 sequence (O95977 1-384): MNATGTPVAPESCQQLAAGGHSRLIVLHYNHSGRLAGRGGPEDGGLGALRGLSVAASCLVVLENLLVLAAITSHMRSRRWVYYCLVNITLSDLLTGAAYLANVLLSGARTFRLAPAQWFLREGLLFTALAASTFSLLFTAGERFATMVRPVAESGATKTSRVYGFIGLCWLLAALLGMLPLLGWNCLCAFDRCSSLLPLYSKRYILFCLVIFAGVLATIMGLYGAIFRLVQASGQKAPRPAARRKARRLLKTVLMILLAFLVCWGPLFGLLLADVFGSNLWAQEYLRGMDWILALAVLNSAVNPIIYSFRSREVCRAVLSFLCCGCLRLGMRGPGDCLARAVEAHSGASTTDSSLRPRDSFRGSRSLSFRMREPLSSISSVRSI
Method: Therefore, the recovery degree of S1PR4 after internalization caused by Compound 30 was evaluated, and the recovery effect following receptor internalization caused by Compound 30 was assessed in cells with high S1PR4 expression.

hS1P4-R-79C = biological target: T2, hS1P4-R-79C (Homo sapiens, UniProt O95977, R79C); test: Tango β-arrestin recruitment luciferase assay, Tango-hS1P4-R-79C-CHO (S1PR4 mutant); format: cell-based; settings: 20 h drug treatment
T2 construct: expressed in transfected cells; host or cells: CHO
T2 sequence (O95977 1-384 R79C): T1 sequence (O95977 1-384) with R79C
Source text: The Tango assay detects ligand-dependent GPCR activity through the interaction between β-arrestin and GPCRs. […] The NTEV fragment and the tetracycline transactivator (tTA), an artificial transcription factor, are fused at the C-terminus of the GPCR, while the CTEV fragment is fused to human β-arrestin 2. To enhance the stability of the interaction between GPCR and β-arrestin, a short sequence from the C-terminus of the human arginine vasopressin receptor 2 (V2 tail) is inserted between the GPCR and NTEV. The V2 tail contains multiple GRK phosphorylation sites, which strengthen β-arrestin binding upon phosphorylation. The CTEV fragment carries the stabile point mutation S219P and is truncated at residue 221 to remove the autoinhibitory C-terminal tail. Meanwhile, β-arrestin 2 is truncated to lack the entire C-terminal tail (residues 383-410 deleted). This truncation confers robust stimulus-dependent receptor desensitization, thereby improving detection sensitivity compared with wild-type β-arrestin 2. The UAS reporter construct consists of upstream activating sequence (UAS) elements, a minimal CMV promoter, and a tTA-dependent luciferase reporter gene. Therefore, constructing Tango cells requires the co-transfection of the above three plasmids into host cells. Upon GPCR activation and β-arrestin recruitment, the TEV enzyme at the β-arrestin terminus cleaves tTA from the GPCR C-terminus. The released tTA initiates tTA-dependent luciferase transcription, and compound activity is ultimately determined by measuring luminescence intensity.
• 1) Tango cell line from was digested from the culture dish respectively. After cell counting, the cells were plated at a density of 10,000 cells per well with […] into a white opaque 96-well plate (add 60 µL D'Hanks to the surrounding wells), and incubated overnight (20 h) in a 5% CO2 incubator at 37°C. The cell density will reach approximately 90% the next day. • 2) After 20 h, 30 µL of serially diluted compound solution was added to each well. The control group was supplemented with 30 µL F12K complete medium. Each group had three replicate wells. • 3) Samples were collected after 20 h of drug treatment.
(All compounds were tested at a final concentration of 45 µM, with 9 serial dilutions at 5-fold intervals. 1 µM BAF-312 was used as the positive control for S1PR1, and 25 µM BAF-312 was used as the positive control for S1PR4.

With CCc1cc(/C(C)=N/OCc2ccc(-c3ccccc3)c(C)c2)ccc1CN1CC[C@H](C(=O)O)C1 [Compound 30] the “S1PR4 internalization (expression of S1PR4 receptor on the cell surface)” value (S1PR4) was “sustained internalization of S1PR4 for up to 20 hours” and the EC50 (hS1P4-R-79C) was 15 nM.
